According to patent EP0783507B1, “COMPOUNDS USEFUL AS ANTIPROLIFERATIVE AGENTS AND GARFT INHIBITORS” (AGOURON PHARMACEUTICALS, INC., priority 1994, dated 1996):
pIC50, pKi: −log10 of the molar value. Like-named read-outs stand apart in the source and are kept apart here.

Key:
L1210 = assay: In vitro cell growth inhibition (MTT, modified Mosmann method), L1210; assay type: cell-based; details: Mus musculus, continuous (72-hour) exposure, mean IC50, read-out: IC50 Cell Culture L1210
Protocol: (§1) All cultures were maintained at 37°C, 5% air-CO2 in a humidified incubator.
(§2) Stock solutions of the inhibitors were prepared in 10 mM sodium bicarbonate in water and stored in 1 ml aliquots at - 20°C for cell culture experiments. Cell growth inhibition was measured by a modification of the method of Mosmann, J. Immunol. Methods 65 (1983), 55-63.
(§3) Mid-log phase cells of each cell line were diluted to 18,500 cells/ml in fresh RPMI growth medium (Mediatech, Washington, DC) supplemented with dialyzed fetal calf serum (Hyclone Laboratories Inc., Logan, UT) and then aliquotted into columns 2 through 12 of 96-well microtiter plates. Column 1 was filled with the same volume ([…]) of fresh medium, without cells, for use as a blank. The plates were then placed in a 37°C, 5% air-CO2 incubator. After 1 to 4 hours, plates were removed from the incubator followed by addition of Compound 1 at 10 x final concentration, […] in binary dilutions, to columns 12 to 4. […] The extent of metabolized MTT was measured spectrophotometrically at 540 nm on a Molecular Devices Vmax kinetic microplate reader. The concentration of drug required to reduce cell growth by 50% as measured by MTT metabolism was determined by interpolation between the O.D. (minus blank) immediately above and below 50% of control O.D. (minus blank).

CCRF-CEM = assay: In vitro cell growth inhibition (MTT, modified Mosmann method), CCRF-CEM; assay type: cell-based; details: Homo sapiens, continuous (72-hour) exposure per table title, Table 2 gives 5 days incubation, mean IC50, read-out: IC50 Cell CultureCCRF-CEM
Protocol: as §1, §2, §3

6C3HED lymphosarcoma = assay type: in vivo; details: tumor mass vs control on day 11
Protocol: (§4) On day zero, 2 mm^2 trocar fragments of 6C3HED lymphosarcoma were implanted subcutaneously in the axillary region into groups of six C3H/He female mice. Starting on day 1, the test compound was administered intraperitoneally in 40% Encapsin given once daily for nine days. Control animals received identical treatment without test compound. The percentage inhibition given in Table 4 below was calculated by comparing the mass of the control tumors (receiving diluent only) on day 11 to those of animals receiving test compound.

[1] = target: catalytic domain of the human GARFT (Homo sapiens, UniProt P22102); assay: biochemical
catalytic domain of the human GARFT, sequence (P22102 810-1010 limits assumed): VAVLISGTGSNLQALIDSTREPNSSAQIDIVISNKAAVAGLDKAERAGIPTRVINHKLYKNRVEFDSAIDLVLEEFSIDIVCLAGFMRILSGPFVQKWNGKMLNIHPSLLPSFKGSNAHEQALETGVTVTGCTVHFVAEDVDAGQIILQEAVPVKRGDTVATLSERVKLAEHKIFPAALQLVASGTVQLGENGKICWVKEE
Protocol: The GAR-transformylase (GARFT) assay method of Young et al., Biochemistry 23 (1984), 3979-3986, was modified and used as described below. Reactions mixtures contained the catalytic domain of the human GARFT, 0-250 nM of Compound 1, 20 µM glycinamide ribonucleotide (GAR), 10 or 20 µM N^10-formyl-5,8-dideazafolate (FDDF), 50 mM HEPES-KOH, pH 7.5, and 50 mM KCl. The reaction was initiated with the addition of enzyme to a final concentration of 11 nM, followed by monitoring of the increase in absorbance at 294 nm at 20°C (e294 = 18.9 mM^-1 cm^-1).
The GARFT inhibition constant (Ki) was determined from the dependence of the steady-state catalytic rate on inhibitor and substrate concentration. […] The Michaelis constant for FDDF, Km, was determined independently by the dependence of the catalytic rate on FDDF concentration. Data for both the Km and Ki determinations were fitted by nonlinear methods to the Michaelis equation, or the Michaelis equation for competitive inhibition, as appropriate. Data resulting from tight-binding inhibition was analyzed, and Ki determined, by fitting the data to the tight-binding equation of Morrison, Biochem Biophys Acta 185 (1969), 269-286, by nonlinear methods.

[2] = system: C3H/BA mammary adenocarcinoma; assay type: in vivo; details: tumor mass vs control on day 14
Protocol: as §4, with “C3H/BA mammary adenocarcinoma” for “6C3HED lymphosarcoma”, “percentage of” for “percentage”, “inhibition” for “inhibition given in Table 4 below”, “14” for “11”

Nc1nc2c(c(=O)[nH]1)SC(CCc1ccc(C(=O)N[C@@H](CCC(=O)O)C(=O)O)s1)CN2 (stereo partly drawn) [Compound 1, 4-[2-(2-Amino-4-oxo-4,6,7,8-tetrahydro-3H-pyrimido[5,4-6][1,4]thiazin-6-yl)-ethyl]-2,5-thienoylamino-L-glutamic acid]
pIC50 (L1210): 7.80 | pIC50 (CCRF-CEM): 8.37 | % Inhibition (6C3HED lymphosarcoma; 12.5 mg/kg intraperitoneally in 40% Encapsin once daily for nine days): 100% | % Inhibition (6C3HED lymphosarcoma; 25 mg/kg intraperitoneally in 40% Encapsin once daily for nine days): 100% | % Inhibition (6C3HED lymphosarcoma; 50 mg/kg intraperitoneally in 40% Encapsin once daily for nine days): toxic | pKi [1]: 8.35 | % Inhibition ([2]; 5 mg/kg intraperitoneally in 40% Encapsin once daily for nine days): 16% | % Inhibition ([2]; 10 mg/kg intraperitoneally in 40% Encapsin once daily for nine days): 84% | % Inhibition ([2]; 20 mg/kg intraperitoneally in 40% Encapsin once daily for nine days): 100%
